ChEMBL document CHEMBL4725286, “Synthesis and antibiofilm evaluation of 3-hydroxy-2,3-dihydroquinazolin-4(1H)-one derivatives against opportunistic pathogen Acinetobacter baumannii” (2020)
Calls of active or inactive are those of the source. No cut-off for these calls is given here.

How the values were obtained:
Acinetobacter baumannii [1] = assay: Antibiofilm activity against Acinetobacter baumannii assessed as inhibition of planktonic growth at 300 uM; format: functional, organism-based
Acinetobacter baumannii [2] = assay: Antibiofilm activity against Acinetobacter baumannii assessed as inhibition of biofilm formation at 50 uM incubated for 24 hrs at stationary condition by crystal violet staining based assay relative to control; format: functional
Acinetobacter baumannii [3] = assay: Antibiofilm activity against drug-resistant Acinetobacter baumannii 1925052 assessed as inhibition of biofilm formation at 50 uM incubated for 24 hrs at stationary condition by crystal violet staining based assay relative to control; format: functional
Escherichia coli = assay: Antibiofilm activity against Escherichia coli assessed as inhibition of biofilm formation at 50 uM incubated for 24 hrs at stationary condition by crystal violet staining based assay relative to control; format: functional; settings: DH5[alpha]
Pseudomonas aeruginosa = assay: Antibiofilm activity against Pseudomonas aeruginosa ATCC 27853 assessed as inhibition of biofilm formation at 50 uM incubated for 24 hrs at stationary condition by crystal violet staining based assay relative to control; format: functional
Acinetobacter baumannii [4] = assay: Synergistic antibacterial activity against Acinetobacter baumannii S1 assessed as FIC incubated for 24 hrs in presence of 1-(3-chlorobenzyl)-3-hydroxy-2-(2-hydroxyphenyl)-2,3-dihydroquinazolin-4(1H)-one by checkerboard titration assay; format: functional
Acinetobacter baumannii [5] = assay: Synergistic antibacterial activity against Acinetobacter baumannii S1 assessed as FIC incubated for 24 hrs in presence of 3-hydroxy-2-isopropyl-1-octyl-2,3-dihydroquinazolin-4(1H)-one by checkerboard titration assay; format: functional
Acinetobacter baumannii [6] = assay: Antibacterial activity against Acinetobacter baumannii S1 incubated for 24 hrs by checkerboard titration assay; format: functional
Acinetobacter baumannii [7] = assay: Antibacterial activity against Acinetobacter baumannii assessed as reduction in motility at 50 uM after 24 hrs photographic-based method; format: functional, organism-based
Acinetobacter baumannii [8] = assay: Synergistic antibacterial activity against Acinetobacter baumannii S1 assessed as FICI incubated for 24 hrs in presence of gentamycin sulfate by checkerboard titration assay; format: functional
Acinetobacter baumannii [9] = assay: Synergistic antibacterial activity against Acinetobacter baumannii S1 incubated for 24 hrs in presence of gentamycin sulfate by checkerboard titration assay; format: functional
Acinetobacter baumannii [10] = assay: Induction of morphological changes in Acinetobacter baumannii biofilm inhibition assessed as reduction in extracellular polysaccharide at 10 uL preincubated for 24 hrs followed by incubating in dark for 1 hr by optical density based plate reader assay relative to control; format: functional; set-up: scale not given: the % may be the effect or the level left
Acinetobacter baumannii [11] = assay: Synergistic antibacterial activity against Acinetobacter baumannii S1 assessed as FIC incubated for 24 hrs in presence of gentamycin sulfate by checkerboard titration assay; format: functional
Acinetobacter baumannii [12] = assay: Antibacterial activity against Acinetobacter baumannii assessed as bacterial death at 50 uM incubated for 15 mins by SYTO9 and PI staining based fluorescence microscopic method; format: functional, organism-based

Q: For `CCCCCCN1c2ccccc2C(=O)N(O)C1c1ccccc1O` (stereo not given), which inhibition (Acinetobacter baumannii [1]) is on record?
A: inactive

Q: What about the inhibition at 50 µM (Acinetobacter baumannii [2]) of the same compound?
A: 7.7%

Q: What does the source list for `O=C(Cc1cccc(Br)c1)N[C@H]1CCOC1=O`?
A: inhibition at 50 µM (Acinetobacter baumannii [3]): 28.2%; inhibition at 50 µM (Escherichia coli): 50.1%; inhibition at 50 µM (Acinetobacter baumannii [2]): 7.9%; inhibition at 50 µM (Pseudomonas aeruginosa): -1.72%

Q: What does the source list for `CCCCCCCCN1c2ccccc2C(=O)N(O)C1c1ccc(O)cc1` (stereo not given)?
A: inhibition (Acinetobacter baumannii [1]): inactive; inhibition at 50 µM (Acinetobacter baumannii [2]): 13.3%

Q: What does the source list for `CCC/C=C/C1N(O)C(=O)c2ccccc2N1CCCCCCCC` (stereo not given)?
A: inhibition (Acinetobacter baumannii [1]): inactive; inhibition at 50 µM (Acinetobacter baumannii [2]): 2.4%

Q: Which inhibition (Acinetobacter baumannii [1]) does the source give for `O=C1c2ccccc2NC(c2ccccc2O)N1O` (stereo not given) here?
A: inactive

Q: And the inhibition at 50 µM (Acinetobacter baumannii [2])?
A: 16.3%

Q: What does the source list for `N#Cc1ccccc1CN1c2ccccc2C(=O)N(O)C1c1ccccc1O` (stereo not given)?
A: inhibition (Acinetobacter baumannii [1]): inactive; inhibition at 50 µM (Acinetobacter baumannii [2]): 17.6%

Q: Which FIC (Acinetobacter baumannii [4]) does the source give for `CN[C@@H]1[C@@H](O)[C@@H](O[C@@H]2[C@@H](O)[C@H](O[C@H]3O[C@H]([C@@H](C)NC)CC[C@H]3N)[C@@H](N)C[C@H]2N)OC[C@]1(C)O.O=S(=O)(O)O` here?
A: 0.25

Q: And the FIC (Acinetobacter baumannii [5])?
A: 0.25

Q: What about the MIC (Acinetobacter baumannii [6]) of the same compound?
A: 0.25 mg/L

Q: `O=C1c2ccccc2N(Cc2cccc(F)c2)C(c2ccccc2O)N1O` (stereo not given) was tested. Which inhibition (Acinetobacter baumannii [1]) did it give?
A: inactive

Q: What about the inhibition at 50 µM (Acinetobacter baumannii [2]) of the same compound?
A: 27.5%

Q: How did the inhibition (Acinetobacter baumannii [1]) turn out when `CCCCCCCCN1c2ccccc2C(=O)N(O)C1c1ccc(C)cc1` (stereo not given) was run?
A: inactive

Q: What about the inhibition at 50 µM (Acinetobacter baumannii [2]) of the same compound?
A: 9.2%

Q: For `CCCCCCCCN1c2ccccc2C(=O)N(O)C1c1ccccc1` (stereo not given), which inhibition (Acinetobacter baumannii [1]) is on record?
A: inactive

Q: What about the inhibition at 50 µM (Acinetobacter baumannii [2]) of the same compound?
A: 5.5%

Q: `O=C1c2ccccc2N(Cc2cccc(Cl)c2)C(c2ccccc2O)N1O` (stereo not given) was tested. Which inhibition at 50 µM (Acinetobacter baumannii [3]) did it give?
A: 38.2%

Q: And the Activity (Acinetobacter baumannii [7])?
A: Active

Q: What about the inhibition (Acinetobacter baumannii [1]) of the same compound?
A: inactive

Q: What about the inhibition at 50 µM (Escherichia coli) of the same compound?
A: 27.5%

Q: And the “fractional inhibitory concentration index (FICI)” value (Acinetobacter baumannii [8])?
A: 0.252

Q: And the inhibition at 50 µM (Acinetobacter baumannii [2])?
A: 34.1%

Q: And the MIC (Acinetobacter baumannii [9])?
A: 2 mg/L

Q: What about the Activity (Acinetobacter baumannii [10]) of the same compound?
A: 34%

Q: What about the MIC (Acinetobacter baumannii [6]) of the same compound?
A: 1020 mg/L

Q: What about the Ratio (Acinetobacter baumannii [11]) of the same compound?
A: 0.002

Q: And the inhibition at 50 µM (Pseudomonas aeruginosa)?
A: 55.4%

Q: How did the inhibition (Acinetobacter baumannii [1]) turn out when `CCCCCCCCN1c2ccccc2C(=O)N(O)C1C(C)C` (stereo not given) was run?
A: inactive

Q: What about the inhibition at 50 µM (Acinetobacter baumannii [2]) of the same compound?
A: 10.2%

Q: What about the Activity (Acinetobacter baumannii [12]) of the same compound?
A: inactive

Q: With `O=C1c2ccccc2N(Cc2ccccc2)C(c2ccccc2O)N1O` (stereo not given) as the compound, how does the inhibition (Acinetobacter baumannii [1]) read?
A: inactive

Q: What about the inhibition at 50 µM (Acinetobacter baumannii [2]) of the same compound?
A: 17.5%

Q: For `CCCCN1c2ccccc2C(=O)N(O)C1c1ccccc1O` (stereo not given), which inhibition (Acinetobacter baumannii [1]) is on record?
A: inactive

Q: What about the inhibition at 50 µM (Acinetobacter baumannii [2]) of the same compound?
A: 29.7%

Q: Which results are given for `CN1c2ccccc2C(=O)N(O)C1c1ccccc1O` (stereo not given)?
A: inhibition (Acinetobacter baumannii [1]): inactive; inhibition at 50 µM (Acinetobacter baumannii [2]): 14.6%

Q: Which results are given for `CCCCCCCCN1c2ccccc2C(=O)N(O)C1c1ccc(Cl)cc1` (stereo not given)?
A: inhibition (Acinetobacter baumannii [1]): inactive; inhibition at 50 µM (Acinetobacter baumannii [2]): 5.2%

Q: With `CCCCCCCCCCCCCCN1c2ccccc2C(=O)N(O)C1c1ccccc1O` (stereo not given) as the compound, how does the inhibition (Acinetobacter baumannii [1]) read?
A: inactive

Q: What about the inhibition at 50 µM (Acinetobacter baumannii [2]) of the same compound?
A: 20.9%

Q: How did the inhibition (Acinetobacter baumannii [1]) turn out when `CCCCCCCCN1c2ccccc2C(=O)N(O)C1c1ccccc1Cl` (stereo not given) was run?
A: inactive

Q: And the inhibition at 50 µM (Acinetobacter baumannii [2])?
A: 8.1%

Q: With `CCCCCCCCN1c2ccccc2C(=O)N(O)C1c1ccccc1OC` (stereo not given) as the compound, how does the inhibition (Acinetobacter baumannii [1]) read?
A: inactive

Q: And the inhibition at 50 µM (Acinetobacter baumannii [2])?
A: 7.2%

Q: `CCCCCCCCCCCCCCCCN1c2ccccc2C(=O)N(O)C1c1ccccc1O` (stereo not given) was tested. Which inhibition (Acinetobacter baumannii [1]) did it give?
A: inactive

Q: And the inhibition at 50 µM (Acinetobacter baumannii [2])?
A: 4.7%

Q: What does the source list for `CCCCCCCCCCCCN1c2ccccc2C(=O)N(O)C1c1ccccc1O` (stereo not given)?
A: inhibition (Acinetobacter baumannii [1]): inactive; inhibition at 50 µM (Acinetobacter baumannii [2]): 8.9%

Q: What does the source list for `CCCCCCCCCCN1c2ccccc2C(=O)N(O)C1c1ccccc1O` (stereo not given)?
A: inhibition at 50 µM (Acinetobacter baumannii [3]): 43.4%; Activity (Acinetobacter baumannii [7]): Active; inhibition (Acinetobacter baumannii [1]): inactive; inhibition at 50 µM (Escherichia coli): 40.8%; fractional inhibitory concentration index (FICI) (Acinetobacter baumannii [8]): 0.252; inhibition at 50 µM (Acinetobacter baumannii [2]): 30.7%; MIC (Acinetobacter baumannii [9]): 2 mg/L; Activity (Acinetobacter baumannii [10]): 31%; MIC (Acinetobacter baumannii [6]): 1020 mg/L; Ratio (Acinetobacter baumannii [11]): 0.002; inhibition at 50 µM (Pseudomonas aeruginosa): 44.5%

Q: `CCCCCCCCN1c2ccccc2C(=O)N(O)C1c1ccc(OC)cc1` (stereo not given) was tested. Which inhibition (Acinetobacter baumannii [1]) did it give?
A: inactive

Q: What about the inhibition at 50 µM (Acinetobacter baumannii [2]) of the same compound?
A: 1.3%

Q: Which inhibition (Acinetobacter baumannii [1]) does the source give for `CCCCCCCCN1c2ccccc2C(=O)N(O)C1c1ccccc1O` (stereo not given) here?
A: inactive

Q: What about the inhibition at 50 µM (Acinetobacter baumannii [2]) of the same compound?
A: 23.5%
